Test results: the supplement of paper PMC10627819
≈ marks a conversion by molar mass, not a printed value.

How the values were obtained:
S. aureus DSM 20231 [1] = assay: fitness (endpoint OD595 vs no drug) (fraction); higher = more growth
Outline: (§1)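 At 37 °C, bacteria in TSB, LB Lennox or CY were grown in 384-well plates from a starting OD595 of 0.01. OD595 was measured every 30 min for 14 h, with the first reading used as background. Fitness is the optical density at the switch to stationary phase as a fraction of the robust mean of no-drug control wells, capped at 1.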

B. subtilis 168 [2] = assay: as above
Outline: as §1

S. aureus Newman [3] = assay: as above
Outline: as §1

S. pneumoniae D39V [4] = assay: as above
Outline: as §1

S. aureus DSM 20231 [5] = test system: S. aureus DSM 20231
B. subtilis 168 [6] = test system: B. subtilis 168
S. aureus Newman [7] = test system: S. aureus Newman
S. pneumoniae D39V [8] = test system: S. pneumoniae D39V

COc1cccc2c1C(=O)c1c(O)c3c(c(O)c1C2=O)C[C@@](O)(C(=O)CO)C[C@@H]3O[C@H]1C[C@H](N)[C@H](O)[C@H](C)O1 [Doxorubicin]
fitness
Details | 0.25 µg/mL | 0.5 µg/mL | 0.625 µg/mL | 1 µg/mL | 1.25 µg/mL | 2.5 µg/mL
B. subtilis 168 [2] | – | – | 0.946 | – | 0.918 | 0.816
S. aureus DSM 20231 [1] | – | – | 0.967 | – | 0.907 | 0.827
S. aureus Newman [3] | – | – | 0.896 | – | 0.791 | 0.68
S. pneumoniae D39V [4] | 0.86 | 0.903 | – | 0.781 | – | –

Details | MIC [µg/mL]
B. subtilis 168 [6] | 5 (≈ 9.2 µM)
S. aureus DSM 20231 [5] | 2.78 (≈ 5.11 µM)
S. aureus Newman [7] | 2.78 (≈ 5.11 µM)
S. pneumoniae D39V [8] | 1.2 (≈ 2.21 µM)

Cc1ncc([N+](=O)[O-])n1CCO [Metronidazole]
fitness
Details | 0.625 µg/mL | 0.781 µg/mL | 1.25 µg/mL | 1.562 µg/mL | 2.5 µg/mL | 3.124 µg/mL | 5 µg/mL
B. subtilis 168 [2] | 0.955 | – | 0.946 | – | 0.94 | – | –
S. aureus DSM 20231 [1] | ≥ 1 | – | ≥ 1 | – | ≥ 1 | – | –
S. aureus Newman [3] | ≥ 1 | ≥ 1 | ≥ 1 | ≥ 1 | ≥ 1 | 0.999 | –
S. pneumoniae D39V [4] | – | – | ≥ 1 | – | ≥ 1 | – | 0.997

Details | MIC [µg/mL]
B. subtilis 168 [6] | 5 (≈ 29.2 µM)
S. aureus DSM 20231 [5] | 3 (≈ 17.5 µM)
S. aureus Newman [7] | 3 (≈ 17.5 µM)
S. pneumoniae D39V [8] | 10 (≈ 58.4 µM)

CN(C)c1cc(NC(=O)CNC(C)(C)C)c(O)c2c1C[C@H]1C[C@H]3[C@H](N(C)C)C(O)=C(C(N)=O)C(=O)[C@@]3(O)C(O)=C1C2=O [Tigecycline]
Details | fitness
B. subtilis 168 [2], 0.039 µg/mL | 0.953
B. subtilis 168 [2], 0.078 µg/mL | 0.95
B. subtilis 168 [2], 0.156 µg/mL | 0.933
S. aureus Newman [3], 0.039 µg/mL | 0.975
S. aureus Newman [3], 0.078 µg/mL | 0.959
S. aureus Newman [3], 0.156 µg/mL | 0.973
S. pneumoniae D39V [4], 0.325 µg/mL | 0.971
S. pneumoniae D39V [4], 0.65 µg/mL | 0.959
S. pneumoniae D39V [4], 1.3 µg/mL | 0.966
S. pneumoniae D39V [4], 2.6 µg/mL | 0.965

Details | MIC [µg/mL]
B. subtilis 168 [6] | 0.312 (≈ 0.533 µM)
S. aureus DSM 20231 [5] | 0.18 (≈ 0.307 µM)
S. aureus Newman [7] | 0.18 (≈ 0.307 µM)
S. pneumoniae D39V [8] | 3 (≈ 5.12 µM)

CN(C)[C@@H]1C(O)=C(C(N)=O)C(=O)[C@@]2(O)C(O)=C3C(=O)c4c(O)ccc(Cl)c4[C@@](C)(O)[C@H]3C[C@@H]12 [Chlortetracycline]
fitness
Details | 0.012 µg/mL | 0.0238 µg/mL | 0.024 µg/mL | 0.0475 µg/mL | 0.048 µg/mL | 0.095 µg/mL | 0.19 µg/mL
B. subtilis 168 [2] | – | – | – | 0.895 | – | 0.8 | 0.524
S. aureus DSM 20231 [1] | 0.793 | – | 0.441 | – | 0.073 | – | –
S. aureus Newman [3] | 0.683 | 0.237 | 0.402 | 0.0993 | 0.0667 | 0.0061 | –
S. pneumoniae D39V [4] | 0.857 | – | 0.703 | – | 0.526 | – | –

Details | MIC [µg/mL]
B. subtilis 168 [6] | 0.4 (≈ 0.835 µM)
S. aureus DSM 20231 [5] | 0.15 (≈ 0.313 µM)
S. aureus Newman [7] | 0.095 (≈ 0.198 µM)
S. pneumoniae D39V [8] | 1.5 (≈ 3.13 µM)

CO/N=C(\C(=O)N[C@@H]1C(=O)N2C(C(=O)O)=C(COC(C)=O)CS[C@H]12)c1csc(N)n1 [Cefotaxime]
Details | fitness
B. subtilis 168 [2], 0.0625 µg/mL | 0.477
B. subtilis 168 [2], 0.125 µg/mL | 0.338
B. subtilis 168 [2], 0.25 µg/mL | 0.205
B. subtilis 168 [2], 0.5 µg/mL | 0.113
B. subtilis 168 [2], 1 µg/mL | 0.0654
B. subtilis 168 [2], 2 µg/mL | 0.0508
S. aureus DSM 20231 [1], 0.039 µg/mL | 0.935
S. aureus DSM 20231 [1], 0.078 µg/mL | 0.869
S. aureus DSM 20231 [1], 0.155 µg/mL | 0.951
S. aureus DSM 20231 [1], 0.156 µg/mL | 0.844
S. aureus DSM 20231 [1], 0.31 µg/mL | 0.825
S. aureus DSM 20231 [1], 0.312 µg/mL | 0.676
S. aureus DSM 20231 [1], 0.62 µg/mL | 0.669
S. aureus Newman [3], 0.039 µg/mL | 0.829
S. aureus Newman [3], 0.078 µg/mL | 0.786
S. aureus Newman [3], 0.156 µg/mL | 0.729
S. aureus Newman [3], 0.312 µg/mL | 0.462
S. aureus Newman [3], 0.625 µg/mL | 0.0743
S. aureus Newman [3], 1.25 µg/mL | 0.022
S. aureus Newman [3], 2.5 µg/mL | 0.021
S. pneumoniae D39V [4], 0.0018 µg/mL | ≥ 1
S. pneumoniae D39V [4], 0.0035 µg/mL | 0.998
S. pneumoniae D39V [4], 0.007 µg/mL | 0.83

Details | MIC [µg/mL]
S. aureus DSM 20231 [5] | 0.173 (≈ 0.38 µM)
S. aureus Newman [7] | 2.5 (≈ 5.49 µM)
S. pneumoniae D39V [8] | 0.008 (≈ 0.0176 µM)

C[C@@H]1O[C@@H]1P(=O)(O)O [Fosfomycin]
Details | fitness
B. subtilis 168 [2], 1.562 µg/mL | 0.712
B. subtilis 168 [2], 3.124 µg/mL | 0.594
B. subtilis 168 [2], 6.248 µg/mL | 0.422
S. aureus DSM 20231 [1], 0.781 µg/mL | 0.875
S. aureus DSM 20231 [1], 1.562 µg/mL | 0.693
S. aureus DSM 20231 [1], 3.124 µg/mL | 0.535
S. aureus Newman [3], 0.781 µg/mL | 0.686
S. aureus Newman [3], 1.562 µg/mL | 0.485
S. aureus Newman [3], 3.124 µg/mL | 0.123
S. pneumoniae D39V [4], 1.25 µg/mL | 0.966
S. pneumoniae D39V [4], 2.5 µg/mL | 0.895
S. pneumoniae D39V [4], 5 µg/mL | 0.716

Details | MIC [µg/mL]
B. subtilis 168 [6] | 12.5 (≈ 90.5 µM)
S. aureus DSM 20231 [5] | 3.5 (≈ 25.4 µM)
S. aureus Newman [7] | 3.5 (≈ 25.4 µM)
S. pneumoniae D39V [8] | 6.25 (≈ 45.3 µM)

CC(=O)Oc1ccccc1C(=O)O [Acetylsalicylic acid]
fitness
Details | B. subtilis 168 [2] | S. aureus DSM 20231 [1] | S. pneumoniae D39V [4]
250 µg/mL | 0.948 | 0.991 | 0.967
500 µg/mL | 0.911 | 0.888 | 0.965
1000 µg/mL | 0.745 | 0.522 | 0.924

Details | MIC [µg/mL]
B. subtilis 168 [6] | 2000 (≈ 11100 µM)
S. aureus DSM 20231 [5] | 1000 (≈ 5550 µM)
S. aureus Newman [7] | 2000 (≈ 11100 µM)
S. pneumoniae D39V [8] | 2000 (≈ 11100 µM)

O=C(O)c1cn(C2CC2)c2cc(N3CCNCC3)c(F)cc2c1=O [Ciprofloxacin]
fitness
Details | 0.0098 µg/mL | 0.0195 µg/mL | 0.0375 µg/mL | 0.039 µg/mL | 0.075 µg/mL | 0.078 µg/mL | 0.15 µg/mL | 0.156 µg/mL | 0.312 µg/mL
B. subtilis 168 [2] | 0.871 | 0.777 | – | 0.135 | – | – | – | – | –
S. aureus DSM 20231 [1] | – | – | 1 | – | 0.978 | 0.899 | 0.77 | 0.754 | 0.456
S. aureus Newman [3] | – | – | 0.801 | – | 0.597 | 0.708 | 0.0387 | 0.267 | 0.0879

Details | MIC [µg/mL]
S. aureus DSM 20231 [5] | 0.312 (≈ 0.942 µM)
S. aureus Newman [7] | 0.156 (≈ 0.471 µM)
S. pneumoniae D39V [8] | 1 (≈ 3.02 µM)

CC1(C)S[C@@H]2[C@H](NC(=O)Cc3ccccc3)C(=O)N2[C@H]1C(=O)O [Penicillin G]
fitness
Details | 0.0018 µg/mL | 0.0035 µg/mL | 0.007 µg/mL | 0.014 µg/mL | 0.0195 µg/mL | 0.039 µg/mL | 0.078 µg/mL
S. aureus Newman [3] | – | – | – | – | 0.928 | 0.892 | 0.886
S. pneumoniae D39V [4] | 0.932 | 0.944 | 0.817 | 0.425 | – | – | –

Details | MIC [µg/mL]
S. aureus DSM 20231 [5] | 0.087 (≈ 0.26 µM)
S. aureus Newman [7] | 0.087 (≈ 0.26 µM)
S. pneumoniae D39V [8] | 0.016 (≈ 0.0478 µM)

C[C@H]1c2cccc(O)c2C(=O)C2=C(O)[C@]3(O)C(=O)C(C(N)=O)=C(O)[C@@H](N(C)C)[C@@H]3[C@@H](O)[C@@H]21 [Doxycycline]
fitness
Details | 0.0155 µg/mL | 0.02 µg/mL | 0.031 µg/mL | 0.04 µg/mL | 0.062 µg/mL | 0.08 µg/mL
B. subtilis 168 [2] | – | 0.876 | – | 0.754 | – | 0.457
S. pneumoniae D39V [4] | 0.789 | – | 0.73 | – | 0.59 | –

Details | MIC [µg/mL]
B. subtilis 168 [6] | 0.08 (≈ 0.18 µM)
S. aureus DSM 20231 [5] | 0.034 (≈ 0.0765 µM)
